From patent US20040072824A1, “Methods and compositions for the treatment of cancer” (priority 2001, published 2004)
Counter-ions that a name gives are not always drawn. Like-named read-outs stand apart in the source and are kept apart here.

What was measured:
[1] = test system: K562, U937, Jurkat, T47-D, MCF7, BT20 and 184B5 cell lines; test: Cytotoxicity in malignant and immortalized cell lines (manual counting, Alamar assay); assay type: cell-based; settings: all of the cell lines tested
Description: These four compounds were added at different concentrations to cultures of various malignant cell lines and normal cells. The cell lines used for these tests were the following:
All leukemic cell lines were grown and used in logarithmic phase. After one day of treatment, the cells were isolated, counted and diluted in a regular growth medium to provide the cell density of about 75×10^3 cells/ml for reading on plates at 48 hours after the treatment, and […] for reading at 144 hours after the treatment.
Several dilutions of each compound tested were added to the wells (12 wells per plate, TPP), and 1 ml of cells from the parent solution was added per well after a line had been completed. The dilutions were made using the culture medium, and following dilutions were tested: control, which contained no compound of this invention; 1:100; 1:1,000; 1:2,000; 1:5,000; and 1:10,000. The starting concentrations for these dilutions were: 50 mg/ml for compound A; 10 mg/ml for compound B; 25 mg/ml for compound C; and 5 mg/ml for compound D. The results were analyzed by manual counting and Alamar reduced assay.
The cells were grown on their respective propagation medium and seeded 24 hours before the compounds are added. The cells were trypsinized, and 50,000 cells/well and 10,000 cells/well were seeded in order to read the plates at 48 hours and 144 hours after being treated by the compounds, respectively.
On the day of the treatment, the medium was replaced by 10 ml each of series dilution of the compounds, consisting of: control, which contained no compound of this invention; 1:100 dilution; 1:1,000 dilution; 1:2,000 dilution; and 1:5,000 dilution. The starting concentrations for these dilutions were: 50 mg/ml for compound A; 10 mg/ml for compound B; 25 mg/ml for compound C; and 5 mg/ml for compound D. The dilution was made using the growth medium.
A tested compound is regarded as being active in cytotoxicity where the percentage of surviving cells after the treatment with the compound is less than 30%.

TCTP = TCTP expression in treated U937 cells (western blot); assay type: cell-based; settings: 24 hours, various dilutions
Description: U937 cells were treated with various dilutions of hydroxyzine, brompheniramine and promethazine for 24 hours as denoted in FIG. 23A. Starting concentrations were: 50 mg/ml for […] (“A”); 10 mg/ml for brompheniramine (“B”); and 25 mg/ml for promethazine (“C”). The proteins were isolated from these cells and loaded onto a gel for western blot analysis. A specific anti-TCTP (anti-HRF) antibody was used to visualize the location of TCTP. […] The level of actin in equal loading of extract was visualized by antiactin antibody (Santa Cruz Biotechnology). No substantial difference between the level of actin in treated and untreated cells was observed.

[2] = test system: Poly ADP-Ribose Polymerase (PARP); test: PARP cleavage in treated U937 cells (western blot); assay type: cell-based; settings: 24 hours
Description: U937 cells were treated with various concentrations of hydroxyzine and promethazine for 24 hours. The proteins were isolated from these cells and loaded onto a gel for a western blot analysis. A specific anti-PARP antibody was used to visualize the location of PARP.

[3] = test system: K562, U937, MDA-DB231, BT20 and MCF7 cell lines; test: Cytotoxic effects in multi-well plate, 6 days, ATP level (CellTiter-Glo); settings: 2x10^-9 M to 2x10^-4 M
Description: In order to test the cytotoxic effects of various compounds, a test was developed in a multi-well plate. Two leukemic cell lines, namely K562 and U937, and three breast cancer cell lines, namely MDA-DB231, BT20 and MCF7 were used for this test.
The cells were seeded at low density and were left for 24 hours to recover and reach a new logarithmic phase of growth. Various concentrations of the compounds being tested, ranging from 2×10^−9 M to 2×10^−4 M, were added in triplicate. The mixture was incubated for 6 days, during which approximately 4 doublings of the cell population occurred, to allow the cells to reach subconfluence.
The viability of the cultured cells after the treatment by the compounds was determined by quantifying the level of ATP since the level of ATP is directly proportional to the number of viable cells present in the culture. The ATP level was quantified by using CellTiter-Glo™ (Promega) luminescent test for cell viability.

[4] = test system: blastic cells from AML patients; test: Inhibition of viability of fresh leukemic cells (trypan blue exclusion); assay type: cell-based, human; settings: Homo sapiens, day 3; for cytotoxicity at 10 µM: 10^-5 M; for cytotoxicity at 1 µM: 10^-6 M
Description: Samples for AML 1 through 5, AML 1 being the least and AML 5 being the most differentiated, were obtained. […] Cells were incubated with or without […] anti-histamine derivatives. Polaramine was included as a negative control. Cell counts were assessed by trypan blue exclusion test at day 3 after the incubation. Morphological analysis was performed using Wright-Giemsa staining on cytocentrifuge preparations. The results were expressed as % inhibition of growth as compared to negative control.

U937 cells = test: Curative effects on palpable tumors, U937 cells in scid/scid mice; assay type: in vivo; settings: daily administration once tumors palpable (4 mm^3)
Description: In this series of experiments, effects of various compounds of the present invention on tumor development were tested using two protocols. The first protocol is directed to the testing of curative effects of these compounds in different cell lines. In this protocol, cancerous cells are inoculated to the animals, and the inoculated animals were left without any further treatment until the development of tumors. As soon as the tumors became palable (4 mm^3), the compounds of this invention were administered daily to the animals. Two different cell lines, i.e., U937 and MDA-MB-231 (breast cancer line), were used for this protocol to inoculate scid/scid mice.

U937 = assay type: in vivo; settings: treatment from day 1, cells inoculated after more than 24 hours, daily administration
Description: The second protocol was designed to test the preventive effects of the compounds of this invention on tumorigenesis. In this protocol, the animals have been treated with various compounds of the present invention on day 1. After more than 24 hours, tumoral cells were inoculated. The administration of the compounds of this invention was maintained daily. The cell line used for this test was U937.

[5] = 72 h, MEAN over AML patients, read-out: In Vitro Percent Inhibition of Viability, MEAN
[6] = 72 h, patient ID 3, FAB AML2, read-out: In Vitro Percent Inhibition of Viability
[7] = 72 h, patient ID 4, FAB AML2, read-out: In Vitro Percent Inhibition of Viability
[8] = 72 h, patient ID 5, FAB AML2, read-out: In Vitro Percent Inhibition of Viability
[9] = 72 h, patient ID 10, FAB AML4, read-out: In Vitro Percent Inhibition of Viability
[10] = 72 h, patient ID 11, FAB AML5, read-out: In Vitro Percent Inhibition of Viability
[11] = 72 h, patient ID 12, FAB AML5, read-out: In Vitro Percent Inhibition of Viability
[12] = 72 h, patient ID 13, FAB AML5, read-out: In Vitro Percent Inhibition of Viability
[13] = 72 h, patient ID 14, FAB AML5, read-out: In Vitro Percent Inhibition of Viability
[14] = 72 h, patient ID 15, FAB AML5, read-out: In Vitro Percent Inhibition of Viability
[15] = AML1, 72 h, patient ID 1, FAB AML1, read-out: In Vitro Percent Inhibition of Viability
[16] = AML1, 72 h, patient ID 2, FAB AML1, read-out: In Vitro Percent Inhibition of Viability
[17] = AML3, 72 h, patient ID 6, FAB AML3, read-out: In Vitro Percent Inhibition of Viability
[18] = AML3, 72 h, patient ID 7, FAB AML3, read-out: In Vitro Percent Inhibition of Viability
[19] = AML3, 72 h, patient ID 8, FAB AML3, read-out: In Vitro Percent Inhibition of Viability
[20] = AML3, 72 h, patient ID 9, FAB AML3, read-out: In Vitro Percent Inhibition of Viability

| SMILES | cytotoxic effect group [3] | cytotoxicity at 10 µM [4, 5] [%] | cytotoxicity at 1 µM [4, 5] [%] | cytotoxicity at 10 µM [4, 6] [%] | cytotoxicity at 1 µM [4, 6] [%] | cytotoxicity at 10 µM [4, 7] [%] | cytotoxicity at 1 µM [4, 7] [%] | cytotoxicity at 10 µM [4, 8] [%] | cytotoxicity at 1 µM [4, 8] [%] | cytotoxicity at 10 µM [4, 9] [%] | cytotoxicity at 1 µM [4, 9] [%] | cytotoxicity at 10 µM [4, 10] [%] | cytotoxicity at 1 µM [4, 10] [%] | cytotoxicity at 10 µM [4, 11] [%] | cytotoxicity at 10 µM [4, 12] [%] | cytotoxicity at 1 µM [4, 12] [%] | cytotoxicity at 10 µM [4, 13] [%] | cytotoxicity at 1 µM [4, 13] [%] | cytotoxicity at 10 µM [4, 14] [%] | cytotoxicity at 1 µM [4, 14] [%] | other results |
| --- | --- | --- | --- | --- | --- | --- | --- | --- | --- | --- | --- | --- | --- | --- | --- | --- | --- | --- | --- | --- | --- |
| CN(C)CCC(c1ccc(Br)cc1)c1ccccn1 (centres unmarked) [brompheniramine, brompheniramine maleate] |  |  |  |  |  |  |  |  |  |  |  |  |  |  |  |  |  |  |  |  | cytotoxic activity [1]: little or no cytotoxic activity; expression of TCTP (TCTP): little effect |
| CN[C@@H]1C[C@H]2O[C@@](C)([C@@H]1OC)n1c3ccccc3c3c4c(c5c6ccccc6n2c5c31)C(=O)NC4 [staurosporine] |  |  |  |  |  |  |  |  |  |  |  |  |  |  |  |  |  |  |  |  | PARP cleavage (induction of apoptosis) [2]: cleave PARP |
| CSc1ccc2c(c1)N(CCC1CCCCN1C)c1ccccc1S2 (centres unmarked) [S60, thioridazine] | I | 53 | 14 | 91 | 12 | 42 | 19 | 51 | 35 | 48 | 6 | 43 | 39 | 88 | 62 | 15 | 15 | 25 | 27 | 0 | cytotoxicity at 10 µM [4, 15]: 42%; cytotoxicity at 1 µM [4, 15]: 8%; cytotoxicity at 10 µM [4, 16]: 13%; cytotoxicity at 1 µM [4, 16]: 8%; cytotoxicity at 10 µM [4, 17]: 89%; cytotoxicity at 1 µM [4, 17]: 13%; cytotoxicity at 10 µM [4, 18]: 95%; cytotoxicity at 1 µM [4, 18]: 12%; cytotoxicity at 10 µM [4, 19]: 56%; cytotoxicity at 1 µM [4, 19]: 0%; cytotoxicity at 10 µM [4, 20]: 38%; cytotoxicity at 1 µM [4, 20]: 0%; tumor growth (U937 cells): delay in the tumor growth; tumor growth compared to the negative control (U937): decrease in tumor growth |
| CN(C)CCCN1c2ccccc2Sc2ccc(Cl)cc21 [S59, chlorpromazine] | I | 37 | 15 | 48 | 7 | 22 | 9 | 37 | 0 | 51 | 33 | 25 | 32 | 51 | 31 | 13 | 40 | 38 | 20 | 17 | cytotoxicity at 10 µM [4, 15]: 8%; cytotoxicity at 1 µM [4, 15]: 8%; cytotoxicity at 10 µM [4, 16]: 35%; cytotoxicity at 1 µM [4, 16]: 5%; cytotoxicity at 10 µM [4, 17]: 24%; cytotoxicity at 1 µM [4, 17]: 13%; cytotoxicity at 10 µM [4, 18]: 53%; cytotoxicity at 1 µM [4, 18]: 3%; cytotoxicity at 10 µM [4, 19]: 44%; cytotoxicity at 1 µM [4, 19]: 14%; cytotoxicity at 10 µM [4, 20]: 71%; cytotoxicity at 1 µM [4, 20]: 11%; tumor growth (U937 cells): delay in the tumor growth; tumor growth compared to the negative control (U937): decrease in tumor growth |
